From US20160271090A1, “FRATAXIN ENHANCER” (TOKYO UNIVERSITY OF AGRICULTURE, priority 2013, published 2016)

Tested on: frataxin protein in human normal fibroblast strain WI-38
Assay: Western blot of frataxin protein in WI-38 cells cultured with ALA
Type: cell-based
Settings: ALA 2 mM for 2 hours in DMEM without FBS, then 24 hours in DMEM with 10% FBS, compared to Sample 2 (medium without ALA)
Experimental: • (i) Human normal fibroblast strain WI-38 was cultured in Dulbecco's modified Eagle medium (DMEM) comprising 10% fetal bovine serum (FBS) under 5% CO2. (ii) 5-Aminolevulinic acid (ALA) was added at a final concentration of 2 mM to DMEM without FBS, and cells of (i) were cultured in said medium at 37° C. for 2 hours to allow ALA to be incorporated. (iii) Then, the cells were transferred to DMEM containing 10% FBS and cultured at 37° C. for 24 hours. (iv) The cells were collected by trypsin treatment, washed with phosphate buffered saline (PBS), and then suspended in SDS sample buffer (50 mM Tris-HCl, pH6.8, 2% SDS, 2.5%-mercaptoethanol, 10% glycerol, and 0.01% bromophenol blue), and heated at 100° C. for 5 minutes to allow lysis. […] In this Example, the said cell lysate is referred to as “Sample 2.” Samples 1 and 2 were subjected to 12% SDS-polyacrylamide electrophoresis, and Western blot analysis employing an anti-human frataxin antibody (from Santa Cruz Biotechnology, cat. #sc-25820) and an HRP-labeled anti-rabbit IgG secondary antibody (from GE Healthcare, cat. #N[MUT]) was performed by conventional means. […]

In the case of `NCC(=O)CCC(=O)O` [ALA, 5-aminolevulinic acid], the “amount of frataxin protein (Western blot, FIG. 1)” value is reported as “clear increase”.
